Assay results taken from patent US9663495B2 (YUHAN CORPORATION, priority 2013, dated 2017).

Tests used:
GPR119 [1] = target: T1, GPR119 (Homo sapiens, UniProt Q8TDV5); assay: cAMP Accumulation Assay (GPR119 CRE-bla CHO-K1 cells, LiveBLAzer-FRET B/G); assay type: cell-based; details: (Emax of the test compound/Emax of MBX-2982)x100, 5 hours incubation
T1 construct: host or cells: CHO-K1 (GPR119 CRE-bla, doxycycline-induced)
T1 sequence (Q8TDV5 1-335): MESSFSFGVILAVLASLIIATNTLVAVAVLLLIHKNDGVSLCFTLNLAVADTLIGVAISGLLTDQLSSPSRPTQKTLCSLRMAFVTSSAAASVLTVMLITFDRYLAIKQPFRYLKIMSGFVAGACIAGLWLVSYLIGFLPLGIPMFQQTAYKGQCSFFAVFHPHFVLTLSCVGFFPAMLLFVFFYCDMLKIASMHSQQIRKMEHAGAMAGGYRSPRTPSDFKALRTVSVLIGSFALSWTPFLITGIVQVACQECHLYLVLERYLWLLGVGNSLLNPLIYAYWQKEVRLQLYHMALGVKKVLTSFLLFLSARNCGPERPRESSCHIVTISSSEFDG

male C57BL/6 mice = assay: Oral Glucose Tolerance Test (OGTT); assay type: in vivo; design: concentration or dose not given beside the values; details: fasted male C57BL/6 mice, oral administration 30 minutes before oral glucose; AUCglucose 0-120 minutes versus negative control group
Description: The oral glucose tolerance test of the compounds according to the present invention was carried out according to the procedures disclosed in Andrikopoulos S, Blair A R, Deluca N, Fam B C, Proietto J, Am J Physiol Endocrinol Metab. 2008, Vol 295, E1323-1332. Briefly, male C57BL/6 mice at 8 to 9 weeks of age having 20 g to 25 g of body weight (Orient Bio Inc. Korea) were allowed to acclimatize to the surroundings (temperature: 20±2° C., humidity: 40-60%, light/dark cycle: 12 hours) for 1 week. During the acclimatization, the mice were given ad libitum access to feed and water. The mice were fasted from 18 hours before the test, except for allowing free access to water. After measuring the mice′ body weights and blood sugar levels, they were divided into test groups so as to have similar blood sugar levels. The mice were orally administered with a mixture of test compound and the diluent (0.5% solution of MC1500 (Sigma)). At 30 minutes after the administration, the mice were also orally administered with 20% glucose solution in an amount of 0.1 ml per 10 g of body weight. The blood samples were taken from the tail vain at 0 (right before the administration of the glucose solution), 15, 30, 60, 90, and 120 minutes after the administration of the glucose solution; and the blood sugar levels thereof were measured with a blood glucose test meter (GlucoDr. AGM-3000, All Medicus Co. Ltd.). The graph for blood sugar level on time for each test compound was plotted from the respective blood sugar values; and then area under the curve (AUCglucose) was determined. The inhibition rate of blood sugar (%) was calculated from the following formula. Inhibition rate of blood sugar (%)=[(AUCglucose of the negative control group−AUCglucose of the test group)/AUCglucose of the negative control group]×100

GPR119 [2] = target: T1, GPR119; assay: cAMP Accumulation Assay (GPR119 CRE-bla CHO-K1 cells, LiveBLAzer-FRET B/G); assay type: cell-based; details: for EC50: 5 hours incubation; for Emax (Fold): maximum activity, response ratio versus non-treated control group

SMILES | Emax (% RR) (GPR119 [1]) | Inhibition rate of blood sugar (%) (male C57BL/6 mice) | EC50 (GPR119 [2]) [nM] | Emax (Fold) (GPR119 [2])
C[C@H]1CN(C(=O)OC(C)(C)C)CCN1c1ncc(-c2ccc(-n3cnn(C)c3=O)c(F)c2)cn1 [Example 1, (S)-tert-butyl 4-(5-(3-fluoro-4-(1-methyl-5-oxo-1H-1,2,4-triazol-4(5H)-yl)phenyl)pyrimidin-2-yl)-3-methylpiperazin-1-carboxylate] | 123.9 | 22.3 | 59 | 2.9
CCCn1ncn(-c2ccc(-c3cnc(N4CCN(C(=O)OC(C)(C)C)C[C@@H]4C)c(C#N)c3)cc2F)c1=O [Example 5, (S)-tert-butyl 4-(3-cyano-5-(3-fluoro-4-(5-oxo-1-propyl-1H-1,2,4-triazol-4(5H)-yl)phenyl)pyridin-2-yl)-3-methylpiperazin-1-carboxylate] | 109.1 | 21.9 | 4 | 2.7
CCc1cnc(N2CCN(c3ncc(-c4ccc(-n5cnn(CCN(CC)CC)c5=O)c(F)c4)cc3C#N)[C@@H](C)C2)nc1 [Example 10, (S)-5-(4-(1-(2-(diethylamino)ethyl)-5-oxo-1H-1,2,4-triazol-4(5H)-yl)-3-fluorophenyl)-2-(4-(5-ethylpyrimidin-2-yl)-2-methylpiperazin-1-yl)nicotinonitrile] | 104.5 | 23.8 | 8 | 2.6
CCc1cnc(N2CCN(c3ncc(-c4ccc(-n5cnn(CCN6CCCC6)c5=O)c(F)c4)cc3C#N)[C@@H](C)C2)nc1 [Example 14] | 125.1 | 18.6 | 14.8 | 3.3
CCc1cnc(N2CCN(c3ncc(-c4ccc(-n5cnn(CCN6CCOCC6)c5=O)c(F)c4)cc3C#N)[C@@H](C)C2)nc1 [Example 15, (S)-2-(4-(5-ethylpyrimidin-2-yl)-2-methylpiperazin-1-yl)-5-(3-fluoro-4-(1-(2-morpholinoethyl)-5-oxo-1H-1,2,4-triazol-4(5H)-yl)phenyl)nicotinonitrile] | 124.5 | 21.7 | 5 | 3.5
CCc1cnc(N2CCN(c3ncc(-c4ccc(-n5cnn(CCN)c5=O)c(F)c4)cc3C#N)[C@@H](C)C2)nc1.Cl [Example 17, (S)-5-(4-(1-(2-aminoethyl)-5-oxo-1H-1,2,4-triazol-4(5H)-yl)-3-fluorophenyl)-2-(4-(5-ethylpyrimidin-2-yl)-2-methylpiperazin-1-yl)nicotinonitrile hydrochloride] | 115.1 | 18.2 | 8.2 | 3.2
CCc1cnc(N2CCN(c3ncc(-c4ccc(-n5cnn([C@@H]6CCOC6)c5=O)c(F)c4)cc3C#N)CC2)nc1 [Example 33, (R)-2-(4-(5-ethylpyrimidin-2-yl)piperazin-1-yl)-5-(3-fluoro-4-(5-oxo-1-(tetrahydrofuran-3-yl)-1H-1,2,4-triazol-4(5H)-yl)phenyl)nicotinonitrile] | 125.7 | 20.9 | 4.4 | 4.0
CCc1cnc(N2CCN(c3ncc(-c4ccc(-n5cnn([C@@H]6CCNC6)c5=O)c(F)c4)cc3C#N)CC2)nc1 [Example 34, (R)-2-(4-(5-ethylpyrimidin-2-yl)piperazin-1-yl)-5-(3-fluoro-4-(5-oxo-1-(pyrrolidin-3-yl)-1H-1,2,4-triazol-4(5H)-yl)phenyl)nicotinonitrile] | 113.8 | 25.1 | 8.4 | 3.2
CCc1cnc(N2CCN(c3ncc(-c4ccc(-n5cnn(CC(=O)N6CCCC6)c5=O)c(F)c4)cc3C#N)CC2)nc1 [Example 37, 2-(4-(5-ethylpyrimidin-2-yl)piperazin-1-yl)-5-(3-fluoro-4-(5-oxo-1-(2-oxo-2-(pyrrolidin-1-yl)ethyl)-1H-1,2,4-triazol-4(5H)-yl)phenyl)nicotinonitrile] | 110.0 | 16.5 | 3.2 | 3.1
CCc1cnc(N2CCN(c3ncc(-c4ccc(-n5cnn(CCOC)c5=O)cc4)cc3C#N)CC2)nc1 [Example 40, 2-(4-(5-ethylpyrimidin-2-yl)piperazin-1-yl)-5-(4-(1-(2-methoxyethyl)-5-oxo-1H-1,2,4-triazol-4(5H)-yl)phenyl)nicotinonitrile] | 112.1 | 17.2 | 9 | 3.1
CCc1cnc(N2CCN(c3ncc(-c4ccc(-n5cnn([C@@H]6CCOC6)c5=O)cc4)cc3C#N)CC2)nc1 [Example 41, (R)-2-(4-(5-ethylpyrimidin-2-yl)piperazin-1-yl)-5-(4-(5-oxo-1-(tetrahydrofuran-3-yl)-1H-1,2,4-triazol-4(5H)-yl)phenyl)nicotinonitrile] | 113.4 | 18.8 | 5 | 3.1
CCc1cnc(N2CCN(c3ncc(-c4ccc(-n5cnn(C(C)C)c5=O)c(F)c4)cc3C#N)CC2)nc1.Cl [Example 43, 2-(4-(5-ethylpyrimidin-2-yl)piperazin-1-yl)-5-(3-fluoro-4-(1-isopropyl-5-oxo-1H-1,2,4-triazol-4(5H)-yl)phenyl)nicotinonitrile hydrochloride] | 130.9 | 25.2 |  | 3.8
CC(C)c1nc(N2CCN(c3ncc(-c4ccc(-n5cnn([C@H]6CCOC6)c5=O)c(F)c4)cc3C#N)CC2)no1 [Example 47, (S)-5-(3-fluoro-4-(5-oxo-1-(tetrahydrofuran-3-yl)-1H-1,2,4-triazol-4(5H)-yl)phenyl)-2-(4-(5-isopropyl-1,2,4-oxadiazol-3-yl)piperazin-1-yl)nicotinonitrile] | 141.6 | 32.7 | 12 | 3.2
COCCn1ncn(-c2ccc(-c3cnc(N4CCC(c5noc(C(C)C)n5)CC4)c(C#N)c3)cc2)c1=O [Example 69, 2-(4-(5-isopropyl-1,2,4-oxadiazol-3-yl)piperidin-1-yl)-5-(4-(1-(2-methoxyethyl)-5-oxo-1H-1,2,4-triazol-4(5H)-yl)phenyl)nicotinonitrile] | 126.7 | 25.8 | 16 | 3.7
CC(C)c1nc(C2CCN(c3ncc(-c4ccc(-n5cnn([C@@H]6CCOC6)c5=O)cc4)cc3C#N)CC2)no1 [Example 70, (R)-2-(4-(5-isopropyl-1,2,4-oxadiazol-3-yl)piperidin-1-yl)-5-(4-(5-oxo-1-(tetrahydrofuran-3-yl)-1H-1,2,4-triazol-4(5H)-yl)phenyl)nicotinonitrile] | 120.0 | 25.2 | 36 | 3.5
CC(C)c1nc(C2CCN(c3ncc(-c4ccc(-n5cnn([C@H]6CCOC6)c5=O)cc4)cc3C#N)CC2)no1 [Example 71, (S)-2-(4-(5-isopropyl-1,2,4-oxadiazol-3-yl)piperidin-1-yl)-5-(4-(5-oxo-1-(tetrahydrofuran-3-yl)-1H-1,2,4-triazol-4(5H)-yl)phenyl)nicotinonitrile] | 127.3 | 20.4 | 9.8 | 3.8
